The values below come from patent US9926293B2, “Multivalent RAS binding compounds” (THE TRUSTEES OF COLUMBIA UNIVERSITY IN THE CITY OF NEW YORK, priority 2014, dated 2018).

One series deals with HPAFII (KRAS G12D). The series is described as follows: Cell viability assay (384-well, Alamar blue). Type of series: cell-based. As to conditions: Homo sapiens, HPAF-II, 48 h. The protocol:
(§1) All cell culture assays were incubated at 37° C., 5% CO2 in media containing Dulbecco's Modified Eagle Medium (DMEM) with 10% fetal bovine serum (FBS) and 1% penicillin-streptomycin (PS). 384-well format for EC50 determination: cells were trypsinized, counted, and seeded into 384-well plates at 1,000 cells/well. After 12-16 hours, compounds (as 50 mM stocks in DMSO) were arrayed in an 8- or 16-point dilution series in 384-well polypropylene plates. Compound solutions were transferred at a 1:5 dilution into the assay plates. After 48 hours, a 50% Alamar blue solution was added to a final concentration of 10% Alamar blue. After 6 hours of incubation, fluorescence intensity was determined using a Victor3 plate reader (Perkin Elmer) with a 535 nm excitation filter and a 590 nm emission filter. All compound measurements were performed in triplicate. For experiments performed in 6-well format, cells were trypsinized, counted, and seeded into 6-well plates at 200,000 cells per well 16 h prior to use. Media was then aspirated and replaced with 2 mL of media containing compounds at the indicated concentrations (from 10 mM stocks in DMSO). After 24 hours, cells were trypsinized and viability was determined using Trypan Blue exclusion assay.

The test system of another series is U2OS (WT). The series can be described thus: Cell viability assay (384-well, Alamar blue). It is filed as cell-based. To be noted: Homo sapiens, Table 7, 48 hours, 8-point dilution series. The protocol: as §1
The test system of a further series is MDA-MB-231 (KRAS G13D). The series can be described thus: Cell viability assay (384-well, Alamar blue). Type of series: cell-based. As to conditions: Homo sapiens, MDA-MB-231, 48 h. The protocol: as §1
A further series deals with MIA Paca-2 (KRAS G12C). The series can be described thus: Cell viability assay (384-well, Alamar blue). It is filed as cell-based. As to conditions: Homo sapiens, MIA PaCa-2, 48 h. The protocol: as §1
In the next series the test system is HT1080 (NRAS Q61K). The series can be described thus: Cell viability assay (384-well, Alamar blue). Type of series: cell-based. As to conditions: Homo sapiens, HT-1080, 48 h. The protocol:
as §1

Series [1] deals with phosphorylated ERK in BJeLR (HRAS^G12V). The series is described as follows: Western blot of phosphorylated ERK. Type of series: cell-based. To be noted: 2 μM and 8 μM, 24 hours, serum free. The protocol:
FIG. 19A-FIG. 19B show BJeLR cells were treated with DMSO, RAS inhibitor at 2 μM and 8 μM, U0126 at 8 μM, or BEZ-235 at 0.2 μM for 24 hours under serum free conditions. Cells were then lysed and the lysate was subjected to detection of phosphorylated Erk and total Erk by western blotting (FIG. 19A). Three independent experiments yielded essentially equivalent results.
(§2) BJeLR cells were seeded in 60 mm dishes at 1 million cells/dish in media containing DMEM and 10% FBS with 1% penicillin and streptomycin (PS), 12-16 hours prior to use. The medium was then aspirated and compounds added as solutions in serum free medium (DMEM with 1% PS) to the dishes and treated for 24 hours or at the indicated time points. Following treatment, the medium was aspirated from each dish and cells were washed twice with PBS. […] Antibodies for pERK1/2, ERK1/2, pAKT ser473, AKT, pan-RAS, RALA, PI3Kgamma (Cell signaling), and RAF-1 (Santa Cruz) were detected using a goat anti-rabbit or goat anti-mouse IgG antibody conjugated to an IRdye at 800CW and 680CW conjugated, respectively (Li-COR biosciences).

Series [2] has as its system RAS-RAF interaction in BJeLR cells. The series can be described thus: Cell-based RAS pulldown with CRAF-RBD agarose beads. As to conditions: 2 μM and 8 μM, 24 hours, serum free. The protocol:
FIG. 20A-FIG. 20B show BJeLR cells were treated as described in FIG. 19A-FIG. 19B and the lysate was incubated with CRAF-RBD bound agarose beads. The beads were then washed three times with PBS to remove any unbound RAS and the bound fraction was then denatured and subjected to detection by western blotting using a pan-RAS antibody (FIG. 20A).
BJeLR cells were seeded at one million cells/10 cm dish in 10% FBS and incubated at 37° C. overnight. The medium was then aspirated and replaced with serum free media containing the inhibitors (from 10 mM DMSO stocks). The cells were then incubated for 24 hours at 37° C. The medium was removed, washed with cold PBS, lysed and spun down at 13,000 rpm at 4° C. to remove unlysed cells and debris. The lysate was incubated with Raf-1 RBD agarose beads (EMD millipore) for 2 hours with rotation at 4° C. The solution was then spun down at 1500×g and the supernatant removed. The beads were washed twice with PBS, resuspended in 2.5×SDS, and then analyzed by western blotting procedure.

The test system of series [3] is phosphorylated AKT in BJeLR cells. The series can be described thus: Western blot of phosphorylated AKT. To be noted: 2 μM and 8 μM, 24 hours, serum free. Type of series: cell-based. The protocol:
FIG. 21A-FIG. 21B show BJeLR cells were treated as described in FIG. 19A-FIG. 19B and the lysate was subjected to detection of phosphorylated AKT ([…]) and total AKT by western blotting (FIG. 21A).
as §2

The nature of series [4]: Aqueous solubility as noted during MST. Type of series: physicochemical. To be noted: noted in MST buffer.
Series [5] concerns MDA-MB-231 cell line (KRAS^G13D). The series is described as follows: Multicellular tumor spheroids in low adherence plates. Type of series: cell-based. As to conditions: 72 hours; for size of multicellular tumor spheroids: low-adherence plates. The protocol: Multicellular Tumor Spheroids
Multicellular tumor spheroids (MCTSs) were grown in 96-well Corningware Ultra Low Attachment (ULA) Plates (CLS 3474). 100 μL of cell suspension containing 2×10^4 cells/ml were added to each well of the ULA plate containing 100 μL of a 2× solution of the desired concentration of compounds. Cells were incubated at 37° C., 5% CO2 for 72 hours to allow for MCTS formation. After 72 hours, 50 μL of a 50% solution of Alamar blue and medium was added and incubated for 12 hours prior to measurements on a Victor3 plate reader as previously described.

[6] abbreviates: Table 7, 8-point dilution series.
The mark [7] stands for this setting: Table 8, MDA-MB-231 (KRAS^G13O), 384-well, alamar blue.

With `NC1(C(=O)NCCCn2cc(-c3ccc(OC(F)(F)F)cc3)c3cc(CN4CCN(Cc5c(Cl)cccc5Cl)CC4)ccc32)CCNCC1` [Compound 31MEW44, 4-amino-N-(3-(5-((4-(2,6-dichlorobenzyl)piperazin-1-yl)methyl)-3-(4-(trifluoromethoxy)phenyl)-1H-indol-1-yl)propyl)piperidine-4-carboxamide], the EC50 in the series with HPAFII (KRAS G12D) (setting [6]) was found to be 6.02 µM; in the series on HPAFII (KRAS G12D) (Table 8, 384-well, alamar blue) it was 5.2 µM; with U2OS (WT), 5.03 µM; in the series on MDA-MB-231 (KRAS G13D) (setting [6]) it was 2.26 µM; in the series on MDA-MB-231 (KRAS G13D) (setting [7]), 2.3 µM; in the series on MIA Paca-2 (KRAS G12C) (setting [6]), 2.81 µM. The EC50 was determined as 3.2 µM with MIA Paca-2 (KRAS G12C) (Table 8, 384-well, alamar blue); 2.47 µM with HT1080 (NRAS Q61K) (setting [6]); 1.1 µM in the series with HT1080 (NRAS Q61K) (Table 8, 384-well, alamar blue). In addition, the pERK abundance result in series [1] is listed as “effectively decreased pERK abundance in a dose-dependent manner”. For the same compound, in series [2], the “CRAF-RBD-bound RAS” value was “dose-dependent decrease in CRAF-RBD-bound RAS”. The “phosphorylated AKT” value in series [3] is recorded as “dose-dependent decrease in phosphorylated AKT”. For the same compound, the aqueous solubility entry in [4] was “more soluble”. The “effect on three dimensional multicellular spheroids” value in series [5] (20 μM) is recorded as “killed”. Besides, in [5], the “size of multicellular tumor spheroids” value is “decreased in size in a dose-dependent manner”.

`NC1(C(=O)NCCCn2cc(-c3cccc(F)c3)c3c(CN4CCN(CCOc5ccc(Cl)cc5)CC4)cccc32)CCNCC1` [Compound 34MEW43, 4-amino-N-(3-(4-((4-(2-(4-chlorophenoxy)ethyl)piperazin-1-yl)methyl)-3-(3-fluorophenyl)-1H-indol-1-yl)propyl)piperidine-4-carboxamide]: the EC50 was found to be 16.4 µM in the series on HPAFII (KRAS G12D) (setting [6]); 16 µM in the series with HPAFII (KRAS G12D) (Table 8, 384-well, alamar blue); 12.3 µM in the series on U2OS (WT); 5.63 µM in the series with MDA-MB-231 (KRAS G13D) (setting [6]); 5.6 µM in the series with MDA-MB-231 (KRAS G13D) (setting [7]); 8.45 µM with MIA Paca-2 (KRAS G12C) (setting [6]). The EC50 with MIA Paca-2 (KRAS G12C) (Table 8, 384-well, alamar blue) was found to be 8.5 µM; in the series with HT1080 (NRAS Q61K) (setting [6]), 5.17 µM; in the series on HT1080 (NRAS Q61K) (Table 8, 384-well, alamar blue), 5.2 µM. Also, in series [1], the pERK abundance entry is “effectively decreased pERK abundance in a dose-dependent manner”. Besides, in [2], the “CRAF-RBD-bound RAS” value is given as “dose-dependent decrease in CRAF-RBD-bound RAS”. Besides, in [3], the “phosphorylated AKT” value is “dose-dependent decrease in phosphorylated AKT”. Further, the aqueous solubility entry in series [4] is “low aqueous solubility”. Moreover, the “size of multicellular tumor spheroids” value in [5] is “decreased in size in a dose-dependent manner”.
